Consider 29 compounds from patent publication US11617740B2, “Chemical inhibitors of Mycobacterium tuberculosis DosRST signaling and persistence” (priority 2017, dated 2023).

The EC50 is the concentration giving half of the maximal effect. The IC50 is the midpoint of a concentration-inhibition curve. The term melting point denotes the temperature, or range, at which the solid turns liquid. The solubility is the dissolved amount per volume that the medium holds. Usually inhibition stands for the share of the control response that was lost under treatment. Read a high inhibition as strong suppression.

In series [1] the test system is DosR-regulated genes hspX and tgs1. Format: cell-based. The following applies: for induction of hspX by the inducer / induction of tgs1 by the inducer: 2 h induction.
The target in a further series is DosS (Mycobacterium tuberculosis, UniProt P9WGK3). As to the kind of experiment: DosS autophosphorylation assay. The format is biochemical. To be noted: 10-40 μM; HC103A 40 μM. As for the experimental part:
Autophosphorylation assay. The DosS autophosphorylation assay was performed as previously described. DosS protein was treated with 10 μM, 20 μM or 40 μM of HC104A, or HC106A. DMSO and 40 μM HC103A were also included as […].

For series [2], the system named is DosRST pathway, CDC1551 (hspX′::GFP) reporter strain. Description: microbe, parasite or virus in culture. The format is cell-based.
Another series concerns Mtb. The format is cell-based, Mycobacterium tuberculosis.
Series [3] relates to DosR regulated genes dosR, hspX, tgs1. The format is cell-based.
The next series relates to DosR regulon. The format is cell-based. The following applies: WT CDC1551, 40 μM.
The test system of series [4] is DosR-controlled genes hspX and tgs1. Format: cell-based. To be noted: 40 μM, 48 h, infected macrophages.
The next series relates to TAG accumulation in Mtb. The format is cell-based. The following applies: 40 μM, 6 d, vs DMSO treated WT.
The test system of the next series is Mtb CDC1551. The format is cell-based. To be noted: 40 μM, 10 days.
A further series addresses DosR (Mycobacterium tuberculosis, UniProt P9WMF9). Description: Electrophoretic mobility shift assay (EMSA), DosR binding of hspX promoter DNA. To be noted: for impact on DosR binding of DNA (words): 1-80 μM. In general terms: In EMSA bound probe runs differently from free probe, usually more slowly.
Experiment in series [5]: not given
The source holds these as a separate data set.

The subject of series [6] is DosRST signaling, CDC1551 (hspX′::GFP). Description: microbe, parasite or virus in culture. Format: cell-based. The following applies: Mycobacterium tuberculosis; 500 nM artemisinin alone.
[7] abbreviates: Mycobacterium tuberculosis, 144 h, CDC1551 (hspX′::GFP), 6 d, read-out: EC50 of DosRST-dependent GFP fluorescence inhibition (FI).
[8] abbreviates: Mycobacterium tuberculosis, Table 3, HC104 series, whole cell assay, read-out: EC50.
Where [9] appears, read: pretreated 24 h, DETA-NONOate 2 h.

≈ marks a conversion by molar mass, not a printed value. Entries after “also recorded” stand apart in the source; their conditions may differ. Read-outs that look alike come from different tables or passages of the source. A value given as a limit tells only on which side of the number the result lay.

Sequence of DosS (P9WGK3 whole entry): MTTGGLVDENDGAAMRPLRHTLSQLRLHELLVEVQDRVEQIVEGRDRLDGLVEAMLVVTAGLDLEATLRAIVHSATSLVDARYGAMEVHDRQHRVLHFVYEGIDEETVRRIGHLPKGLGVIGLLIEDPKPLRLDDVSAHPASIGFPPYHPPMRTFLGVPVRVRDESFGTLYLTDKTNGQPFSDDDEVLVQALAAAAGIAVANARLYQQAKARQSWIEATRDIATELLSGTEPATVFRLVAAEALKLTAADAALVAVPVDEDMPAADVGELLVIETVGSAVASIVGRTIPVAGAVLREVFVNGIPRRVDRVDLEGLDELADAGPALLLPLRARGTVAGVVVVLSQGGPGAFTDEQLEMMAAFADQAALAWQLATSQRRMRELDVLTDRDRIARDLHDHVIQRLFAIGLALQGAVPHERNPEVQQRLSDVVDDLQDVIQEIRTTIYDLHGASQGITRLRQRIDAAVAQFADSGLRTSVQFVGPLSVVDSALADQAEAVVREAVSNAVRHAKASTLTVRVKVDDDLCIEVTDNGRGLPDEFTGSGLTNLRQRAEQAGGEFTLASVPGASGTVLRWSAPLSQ
Sequence of DosR (P9WMF9 whole entry, looked up): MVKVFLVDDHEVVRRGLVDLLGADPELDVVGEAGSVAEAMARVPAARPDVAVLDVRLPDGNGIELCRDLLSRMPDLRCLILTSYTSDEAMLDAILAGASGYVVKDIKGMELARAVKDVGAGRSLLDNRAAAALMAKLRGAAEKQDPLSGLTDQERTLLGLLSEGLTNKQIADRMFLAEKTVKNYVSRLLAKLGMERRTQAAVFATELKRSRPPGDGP

On to `NCCN(CCN)/[N+]([O-])=N/O` [DETA-NONOate, reference compound], for which, in series [1], the “induction of hspX by the inducer” value is on record as 3024 fold and the “induction of tgs1 by the inducer” value is 113 fold.

Regarding `O=C(Nc1cccc(O)c1)c1cccc(NC(=O)c2cccs2)c1` [HC103A, reference compound], at DosS, the “effect on DosS autophosphorylation” value is “strongly inhibited”.

On to `CN(C)CCCN1C(=O)c2cccc3c(Br)ccc(c23)C1=O` [HC104A], for which the EC50 in series [2] (setting [7]) worked out at 9.8 µM. Besides, in series [2] (setting [8]), the EC50 is 9.8 µM. Also, the “impact on Mtb growth” value with Mtb is recorded as “minimal impact”. Moreover, the “inhibition of hspX and tgs1 gene expression during hypoxia” value in series [3] (10 μM, real-time PCR) is given as “strongly inhibited”. Further, in series [3] (40 μM, 6 d, in vitro), the “downregulation of dosR” value was 6 fold, the “downregulation of hspX” value is listed as 570 fold and the “downregulation of tgs1” value was 13 fold. In addition, the “additional genes repressed that were not repressed in CDC1551(ΔdosR)” value with DosR regulon amounted to 119 genes. Further, the “genes from dosR regulon inhibited” value with DosR regulon (>2-fold, q<0.05) is given as 26 genes. Moreover, in series [4], the “inhibition of hspX induction” value is given as 185 fold and the “inhibition of tgs1 induction” value was 10 fold. Besides, in series [1] (setting [9]), the “inhibition of hspX following DETA-NONOate treatment” value was 302 fold and the “inhibition of tgs1 following DETA-NONOate treatment” value is recorded as 6.6 fold. Further, in series [1] (pretreated 24 h, vitamin C 2 h), the “inhibition of hspX transcripts following vitamin C treatment” value was found to be 3.4 fold and the “inhibition of tgs1 transcripts following vitamin C treatment” value is “no effect”. In addition, the “reduction of TAG accumulation” value in the series with TAG accumulation in Mtb is around 50%. Further, the “survival relative to DMSO control during NRP” value in the series on Mtb CDC1551 is on record as “no impact on Mtb survival”. Moreover, on DosS, the “effect on DosS autophosphorylation” value is listed as “no inhibitory activity; also recorded: inhibitory activity was not observed; also recorded: no effect”. The “concentration at which inhibition of DosR DNA binding begins” value at DosR (2 μM DosR, doses 1-80 μM) stood at 10 µM. Further, the “% free DNA” value at DosR (20 μM, 2 μM DosR) is listed as 72%. The “% free DNA” value on DosR (30 μM, 2 μM DosR) is reported as 89%. For the same compound, on DosR (40 μM, 2 μM DosR), the “% free DNA” value is recorded as 92% and the “inhibition of DosR DNA binding compared to DMSO” value is around 22 fold. Further, the “% free DNA” value on DosR (60 μM, 2 μM DosR) was determined as 96%. In addition, the “% free DNA” value at DosR (80 μM, 2 μM DosR (normalised as 100%)) is reported as 100%. Moreover, the IC50 at DosR (preliminary, data not shown, read-out: IC50 for inhibition of DosR-DNA binding) was around 10 µM.

In the case of `CN(C)CCCN1C(=O)c2cccc3cccc(c23)C1=O` [HC104B], in series [2], the “activity in the whole cell Mtb reporter assay” value is “complete loss of activity”. For the same compound, the EC50 in series [2] (setting [8]) was above 200 µM.

As to `CN1C(=O)c2cccc3c(Br)ccc(c23)C1=O` [HC104G], the “fold less active than HC104A” value in [2] is on record as around 10 fold; in series [2] (whole cell assay), around 5 fold. For the same compound, the EC50 in series [2] (setting [8]) came out at 43.8 µM.

For `O=C(Nc1ccon1)Nc1ccc(Cl)cc1Cl` [HC106C], in series [2], the “activity in the whole cell Mtb reporter assay” value is listed as “no activity”.

On to `O=C(Nc1ccc(Cl)cc1)Nc1ccno1` [HC106F, 1-(4-chlorophenyl)-3-(1,2-oxazol-5-yl)urea], for which the melting point was 183 °C. The “fold enhanced activity relative to HC106A” value in [2] is around 10 fold. For the same compound, in series [2] (whole cell assay), the “fold enhanced activity relative to HC106A” value was around 2 fold. Moreover, in series [5] (microsomes, 0.5 h), the “Microsomes (% remaining @ 30 minutes)” value is 115% remaining. For the same compound, the solubility in “physchem” is above 200 µM.

As to `O=C(Nc1ccccc1)Nc1ccno1` [MSU-33189, 3-(1,2-oxazol-5-yl)-1-phenylurea], the EC50 in series [2] (setting [7]) came to 0.63 µM.

On to `O=C(Nc1ccno1)Nc1ccno1` [MSU-39444, 1,3-bis(1,2-oxazol-5-yl)urea], for which the EC50 in [2] (CDC1551 (hspX′::GFP), 6 d, read-out: EC50 of DosRST-dependent GFP fluorescence inhibition (FI)) is around 2 µM; in series [2] (setting [7]), 1.7 µM.

Consider `O=C(Nc1cccc(Cl)c1)Nc1ccno1` [MSU-39445, 1-(3-chlorophenyl)-3-(1,2-oxazol-5-yl)urea], for which the melting point was 159 °C (dec.). The EC50 in series [2] (setting [7]) came out at 0.75 µM. In “physchem”, this compound registered a solubility above 100 µM.

`COc1ccc(NC(=O)Nc2ccno2)cc1` [MSU-39447, 1-(4-methoxyphenyl)-3-(1,2-oxazol-5-yl)urea] returned a melting point of 166 to 167 °C. Besides, the EC50 in series [2] (setting [7]) was found to be 0.61 µM. In addition, in the series “physchem”, the solubility was above 100 µM.

In turn, `O=C(Nc1ccc(Cl)nc1)Nc1ccno1` [MSU-39448, 1-(6-chloropyridin-3-yl)-3-(1,2-oxazol-5-yl)urea] had a melting point of 158 to 159 °C.

In turn, `O=C(Nc1ccc(Cl)cn1)Nc1ccno1` [MSU-39450, 1-(5-chloropyridin-2-yl)-3-(1,2-oxazol-5-yl)urea] returned a melting point of 122 to 123 °C.

In turn, `O=C(Nc1ccc(Cl)c(Cl)c1)Nc1ccno1` [MSU-39452, 1-(3,4-dichlorophenyl)-3-(1,2-oxazol-5-yl)urea] gave a melting point of 164 °C.

The compound `CC(C)(C)c1ccc(NC(=O)Nc2ccno2)cc1` [MSU-41442, 1-(4-tert-butylphenyl)-3-(1,2-oxazol-5-yl)urea] yielded a melting point of 163 °C. In addition, the solubility in “physchem” is above 100 µM.

Consider `O=C(Nc1ccc(-c2ccccc2)cc1)Nc1ccno1` [MSU-41443, 1-{[1,1′-biphenyl]-4-yl}-3-(1,2-oxazol-5-yl)urea], for which the melting point worked out at 193 °C. For the same compound, the concentration in solution in the series “physchem” (solubility) was 14 µM (≈ 3.91 µg/mL).

In turn, `O=C(NCc1ccccc1)Nc1ccno1` [MSU-41462, 1-benzyl-3-(1,2-oxazol-5-yl)urea] yielded a melting point of 128 to 130 °C.

As to `O=C(Nc1ccc(C(F)(F)F)cc1)Nc1ccno1` [MSU-41463, 3-(1,2-oxazol-5-yl)-1-[4-(trifluoromethyl)phenyl]urea], the melting point stood at 178 °C. For the same compound, the “Microsomes (% remaining @ 30 minutes)” value in series [5] (30 minutes) is reported as 84 % remaining.

`O=C(Nc1ccc(Br)cc1)Nc1ccno1` [MSU-41464, 1-(4-bromophenyl)-3-(1,2-oxazol-5-yl)urea] came in with a melting point of 183 to 184 °C. In addition, in series [5] (30 minutes), the “Microsomes (% remaining @ 30 minutes)” value is 109% remaining.

Turning to `COC(=O)c1ccc(NC(=O)Nc2ccno2)cc1` [MSU-41465, methyl 4-{[(1,2-oxazol-5-yl)carbamoyl]amino}benzoate], the melting point worked out at 194 °C. In series [5] (microsomes, 0.5 h), the “Microsomes (% remaining @ 30 minutes)” value is recorded as 73 % remaining.

Compound `CC(C)CNC(=O)Nc1ccno1` [MSU-41542, 3-(2-methylpropyl)-1-(1,2-oxazol-5-yl)urea] displayed a melting point of 187 °C.

`O=C(Nc1ccc(COc2ccccc2)cc1)Nc1ccno1` [MSU-41545, 3-(1,2-oxazol-5-yl)-1-[4-(phenoxymethyl)phenyl]urea] had a melting point of 164 °C.

`O=C(Nc1ccno1)NC1CCCC1` [MSU-41546, 1-cyclopentyl-3-(1,2-oxazol-5-yl)urea] displayed a melting point of 182 °C.

On to `O=C(Nc1ccno1)NC1CCCCC1` [MSU-42002, 1-cyclohexyl-3-(1,2-oxazol-5-yl)urea], for which the melting point came to 180 °C.

As to `O=C(Nc1cccc(Br)c1)Nc1ccno1` [MSU-42003, 1-(3-bromophenyl)-3-(1,2-oxazol-5-yl)urea], the melting point was found to be 157 °C.

`O=C(NCCc1ccccc1)Nc1ccno1` [MSU-42004, 3-(1,2-oxazol-5-yl)-1-(2-phenylethyl)urea] had a melting point of 165 °C.

Regarding `C[C@@H]1CC[C@H]2[C@@H](C)C(=O)O[C@@H]3O[C@@]4(C)CC[C@@H]1[C@]32OO4` [artemisinin, reference compound], in series [3] (maximum inhibition), the “maximum inhibition of hspX” value is on record as 51 fold and the “maximum inhibition of tgs1” value turned out to be 166 fold. This compound also came in with an inhibition at 0.5 µM in series [6] of 40%.

Consider `O=C(O)CCCN1C(=O)c2cccc3cccc(c23)C1=O` [virstatin, reference compound], for which the “activity in the whole cell Mtb reporter assay” value in series [2] was “did not have any impact on DosRST signaling; also recorded: nor did virstatin inhibit the DosRST pathway; also recorded: not effect”. Further, the “impact on DosR binding of DNA (words)” value on DosR (2 μM DosR) is on record as “no impact on DosR binding of DNA”; at DosR (2 μM DosR, listed as Virstatin), “did not impact DosR binding of promoter DNA”.

Take `O=C1O[C@H]([C@@H](O)CO)C(O)=C1O` [vitamin C, reference compound]: in series [1], the “induction of hspX by the inducer” value is reported as 2162 fold and the “induction of tgs1 by the inducer” value is on record as 58 fold.
